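Grown in 96-well plates, cells were treated for 48 hours with each compound at five concentrations. Insufficient inhibition: endpoint recorded as highest concentration tested. Definition used: TGI = concentration required for complete inhibition of growth.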
Columns and labels:
Experiment in all cases: NCI anticancer screen, dose series, 48 h
UO-31 renal = system: UO-31 renal
HCC-2998 colon = system: HCC-2998 colon
K-562 leukemia = system: K-562 leukemia
SK-OV-3 ovarian = system: SK-OV-3 ovarian
T-47D breast = system: T-47D breast
SK-MEL-5 melanoma = system: SK-MEL-5 melanoma
HCT-15 colon = system: HCT-15 colon
HOP-62 NSCLC = system: HOP-62 NSCLC
RXF 393 renal = system: RXF 393 renal
SK-MEL-2 melanoma = system: SK-MEL-2 melanoma
SF-268 CNS = system: SF-268 CNS
MDA-MB-435 = system: MDA-MB-435
HCT-116 colon = system: HCT-116 colon
OVCAR-4 ovarian = system: OVCAR-4 ovarian
SNB-75 CNS = system: SNB-75 CNS
SF-295 CNS = system: SF-295 CNS
U251 CNS = system: U251 CNS
IGROV1 ovarian = system: IGROV1 ovarian
NCI-H226 lung = system: NCI-H226 lung
NCI-H23 lung = system: NCI-H23 lung
UACC-62 melanoma = system: UACC-62 melanoma
MOLT-4 leukemia = system: MOLT-4 leukemia
SK-MEL-28 melanoma = system: SK-MEL-28 melanoma
NCI-H460 lung = system: NCI-H460 lung
TK-10 renal = system: TK-10 renal
SW-620 colon = system: SW-620 colon
SN12C renal = system: SN12C renal
ACHN renal = system: ACHN renal
OVCAR-5 ovarian = system: OVCAR-5 ovarian
HT29 colon = system: HT29 colon
HS 578T breast = system: HS 578T breast
SR leukemia = system: SR leukemia
COLO 205 colon = system: COLO 205 colon
DU-145 prostate = system: DU-145 prostate
LOX IMVI melanoma = system: LOX IMVI melanoma
HL-60(TB) leukemia = system: HL-60(TB) leukemia
SF-539 CNS = system: SF-539 CNS
PC-3 prostate = system: PC-3 prostate
NCI/ADR-RES ovarian = system: NCI/ADR-RES ovarian
MDA-MB-231 breast = system: MDA-MB-231 breast
A498 renal = system: A498 renal
OVCAR-8 ovarian = system: OVCAR-8 ovarian
MCF7 breast = system: MCF7 breast
NCI-H522 lung = system: NCI-H522 lung
EKVX NSCLC = system: EKVX NSCLC
KM12 colon = system: KM12 colon
CAKI-1 renal = system: CAKI-1 renal
MALME-3M melanoma = system: MALME-3M melanoma
CCRF-CEM leukemia = system: CCRF-CEM leukemia
RPMI-8226 leukemia = system: RPMI-8226 leukemia
SNB-19 CNS = system: SNB-19 CNS
M14 melanoma = system: M14 melanoma
OVCAR-3 ovarian = system: OVCAR-3 ovarian
A549 NSCLC = system: A549 NSCLC
786-0 renal = system: 786-0 renal
UACC-257 melanoma = system: UACC-257 melanoma
HOP-92 NSCLC = system: HOP-92 NSCLC

## CCN(CCO)C(=O)C1(c2ccccc2)CCCCC1
UO-31 renal
  TGI: > 10 µM
HCC-2998 colon
  TGI: > 10 µM
K-562 leukemia
  TGI: > 10 µM
SK-OV-3 ovarian
  TGI: > 10 µM
T-47D breast
  TGI: > 10 µM
SK-MEL-5 melanoma
  TGI: > 10 µM
HCT-15 colon
  TGI: > 10 µM
HOP-62 NSCLC
  TGI: > 10 µM
RXF 393 renal
  TGI: > 10 µM
SK-MEL-2 melanoma
  TGI: > 10 µM
SF-268 CNS
  TGI: > 10 µM
MDA-MB-435
  TGI: > 10 µM
HCT-116 colon
  TGI: > 10 µM
OVCAR-4 ovarian
  TGI: > 10 µM
SNB-75 CNS
  TGI: > 10 µM
SF-295 CNS
  TGI: > 10 µM
U251 CNS
  TGI: > 10 µM
IGROV1 ovarian
  TGI: > 10 µM
NCI-H226 lung
  TGI: > 10 µM
NCI-H23 lung
  TGI: > 10 µM
UACC-62 melanoma
  TGI: > 10 µM
MOLT-4 leukemia
  TGI: > 10 µM
SK-MEL-28 melanoma
  TGI: > 10 µM
NCI-H460 lung
  TGI: > 10 µM
TK-10 renal
  TGI: > 10 µM
SW-620 colon
  TGI: > 10 µM
SN12C renal
  TGI: > 10 µM
ACHN renal
  TGI: > 10 µM
OVCAR-5 ovarian
  TGI: > 10 µM
HT29 colon
  TGI: > 10 µM
HS 578T breast
  TGI: > 10 µM
SR leukemia
  TGI: > 10 µM
COLO 205 colon
  TGI: > 10 µM
DU-145 prostate
  TGI: > 10 µM
LOX IMVI melanoma
  TGI: > 10 µM
HL-60(TB) leukemia
  TGI: > 10 µM
SF-539 CNS
  TGI: > 10 µM
PC-3 prostate
  TGI: > 10 µM
NCI/ADR-RES ovarian
  TGI: > 10 µM
MDA-MB-231 breast
  TGI: > 10 µM
A498 renal
  TGI: > 10 µM
OVCAR-8 ovarian
  TGI: > 10 µM
MCF7 breast
  TGI: > 10 µM
NCI-H522 lung
  TGI: > 10 µM
EKVX NSCLC
  TGI: > 10 µM
KM12 colon
  TGI: > 10 µM
CAKI-1 renal
  TGI: > 10 µM
MALME-3M melanoma
  TGI: > 10 µM
CCRF-CEM leukemia
  TGI: > 10 µM
RPMI-8226 leukemia
  TGI: > 10 µM
SNB-19 CNS
  TGI: > 10 µM
M14 melanoma
  TGI: > 10 µM
OVCAR-3 ovarian
  TGI: > 10 µM
A549 NSCLC
  TGI: > 10 µM

## O=[N+]([O-])c1ccc2c(c1)S(=O)(=O)N1Cc3ccccc3CCN21
UO-31 renal
  TGI: > 100 µM
HCC-2998 colon
  TGI: > 100 µM
K-562 leukemia
  TGI: > 100 µM
SK-MEL-5 melanoma
  TGI: > 100 µM
HCT-15 colon
  TGI: > 100 µM
HOP-62 NSCLC
  TGI: > 100 µM
RXF 393 renal
  TGI: > 100 µM
SK-MEL-2 melanoma
  TGI: > 100 µM
SF-268 CNS
  TGI: > 100 µM
MDA-MB-435
  TGI: > 100 µM
HCT-116 colon
  TGI: > 100 µM
OVCAR-4 ovarian
  TGI: > 100 µM
SNB-75 CNS
  TGI: > 100 µM
SF-295 CNS
  TGI: > 100 µM
U251 CNS
  TGI: > 100 µM
786-0 renal
  TGI: > 100 µM
IGROV1 ovarian
  TGI: > 100 µM
NCI-H226 lung
  TGI: > 100 µM
NCI-H23 lung
  TGI: > 100 µM
UACC-62 melanoma
  TGI: > 100 µM
MOLT-4 leukemia
  TGI: > 100 µM
SK-MEL-28 melanoma
  TGI: > 100 µM
NCI-H460 lung
  TGI: > 100 µM
TK-10 renal
  TGI: > 100 µM
SW-620 colon
  TGI: > 100 µM
SN12C renal
  TGI: > 100 µM
ACHN renal
  TGI: > 100 µM
OVCAR-5 ovarian
  TGI: > 100 µM
HT29 colon
  TGI: > 100 µM
HS 578T breast
  TGI: > 100 µM
SR leukemia
  TGI: > 100 µM
COLO 205 colon
  TGI: > 100 µM
DU-145 prostate
  TGI: > 100 µM
LOX IMVI melanoma
  TGI: > 100 µM
HL-60(TB) leukemia
  TGI: > 100 µM
SF-539 CNS
  TGI: > 100 µM
PC-3 prostate
  TGI: > 100 µM
NCI/ADR-RES ovarian
  TGI: > 100 µM
MDA-MB-231 breast
  TGI: > 100 µM
A498 renal
  TGI: > 100 µM
OVCAR-8 ovarian
  TGI: > 100 µM
MCF7 breast
  TGI: > 100 µM
NCI-H522 lung
  TGI: > 100 µM
EKVX NSCLC
  TGI: > 100 µM
KM12 colon
  TGI: > 100 µM
CAKI-1 renal
  TGI: > 100 µM
UACC-257 melanoma
  TGI: > 100 µM
MALME-3M melanoma
  TGI: > 100 µM
HOP-92 NSCLC
  TGI: > 100 µM
CCRF-CEM leukemia
  TGI: > 100 µM
RPMI-8226 leukemia
  TGI: > 100 µM
SNB-19 CNS
  TGI: > 100 µM
M14 melanoma
  TGI: > 100 µM
OVCAR-3 ovarian
  TGI: > 100 µM
A549 NSCLC
  TGI: > 100 µM
